Experimental findings from patent publication US12286401B2, “Small molecules that sensitize HIV-1 infected cells to antibody dependent cellular cytotoxicity” (THE TRUSTEES OF THE UNIVERSITY OF PENNSYLVANIA, priority 2018, dated 2025) are described below.

Format in all cases: cell-based
For experiment [1], the system named is HIV-1CH58TF Env on virions. In words: Virus-based ELISA (VBE) virus capture assay. For orientation: In an ELISA, binding on a coated surface is turned into a signal by an enzyme label.
Experiment [2] relates to HIV-1CH58TF. The experiment is described as follows: Virus neutralization in TZM-bl assay. The conditions noted are these: Human immunodeficiency virus 1; TZM-bl cells; read-out: IC50, inhibition of HIV-1CH58TF infection. The procedure:
(§1) To evaluate the direct virus-neutralizing ability of the analogs, I, HIV-1CH58TF was incubated with indicated amounts of different compounds or DMSO for 1 hour at 37° C., then added to TZM-bl cells. After incubation for 48 h at 37° C., luciferase activity was measured. Relative infectivity was calculated as the percentage of the value seen in the absence of compound. To measure the ability of (S)-MCG-IV-210 to sensitize viral particles to neutralization by otherwise non-neutralizing 17b (FIG. 15F), HIV-1CH58TF was incubated with the indicated amounts of 17b in the presence of 0.5 μM (+)-BNM-III-170, 20 μM (S)-MCG-IV-210 or DMSO for 1 hour at 37° C., then added to TZM-bl cells. After incubation for 48 h at 37° C., luciferase activity was measured.
As a positive control, (+)-BNM-III-170 was used, which has been reported to inhibit HIV-1 infection at low micromolar concentrations. See, Melillo, ACS Med Chem Lett 7:330-334. […] While all tested MCG analogs also neutralized HIV-1CH58TF, they did so with only modest potency (FIG. 15E).

Experiment [3] concerns primary CD4 T cells infected with HIV-1CH58TF. The experiment is described as follows: Cell surface staining with A32-AF647 (State 2A, cluster A exposure). The following applies: 50 μM compound. The procedure: FIGS. 14A-14D show the data for the cell surface staining with A32-AF647. Cells were then incubated with A32-AF647 together with 5 μg/ml 17b (FIG. 14A, FIG. 14B, 14C) or 1:1000 diluted HIV+ plasma from infected individuals (FIG. 14D) in the presence of DMSO, 50 μM (+)-BNM-III-170 or 50 μM (S)-MCG-IV-210 at 37° C. Mean fluorescence intensity (MFI) of A32-AF647 was measured by flow cytometry. FIG. 14E is a bar graph showing data for the VBE assay, comparing the binding capacity of different Abs, the relative ratio of the luciferase activity to the luciferase activity of 2G12. Data shown are the mean±SD of at least three independent experiments. Statistical significance was evaluated using Mann-Whitney unpaired t test (FIG. 14C) or Wilcoxon paired t test (FIG. 14D) (*, P<0.05; ns, not significant.).
To evaluate whether (S)-MCG-IV-210 was able to stabilize State 2A, primary CD4+ T cells were infected with the primary CH58 transmitted/founder (CH58 TF) virus and evaluated the exposure of the cluster A region with an Alexa-Fluor 647-conjugated A32 (A32-AF647) antibody in the presence or absence of CD4mc and the CoRBS 17b Ab, as reported. See, Richard, 2016, EbioMedicine doi:10.1016/j.ebiom.2016.09.004. […] Mean fluorescence intensity (MFI) of A32-AF647 was measured by flow cytometry. […]

In experiment [4] the test system is HIV-1CH58TF. The experiment is described as follows: Sensitization of viral particles to neutralization by 17b (TZM-bl). The following applies: sub-inhibitory concentrations (20 μM (S)-MCG-IV-210). The procedure:
as §1
Another well-documented antiviral property of CD4mc is their capacity to sensitize viral particles to neutralization by otherwise non-neutralizing antibodies. See, Madani, 2018, Nat. Commun. 9:2363; Madani, 2014, J. Virol. 88:6542-6555; and Madani, 2016, J. Virol., 90:5031-5046. (S)-MCG-IV-210 was tested to determine if this compound shared this property.

For experiment [5], the system named is uninfected bystander CD4+ T cells. The experiment is described as follows: Uninfected bystander CD4+ T cell recognition and ADCC. The conditions noted are these: 50 μM. The procedure: FIG. 17A is a dot plot showing the ability of HIV+plasma to recognize uninfected bystander cells in the presence of 50 μM (+)-BNM-III-170 or (S)-MCG-IV-210 was evaluated by FACS. FIG. 17B is a dot showing the use of the uninfected eFluor 450+ cells as target cells for ADCC with autologous PBMC and 5 HIV+ plasma in the presence of 50 μM (+)-BNM-III-170 or (S)-MCG-IV-210. Statistical significance was evaluated using a paired t test (*, P<0.05; ****, P<0.0001; ns, not significant).
The capacity of (S)-MCG-IV-210 to protect uninfected bystander CD4+ T cells from ADCC responses was evaluated. Briefly, primary CD4+ T cells were infected with the NL4-3.ADA.GFP WT virus. The cell proliferation dye eFluor-450 was used to stain uninfected autologous CD4+ T cells, which were then added to the infected cells (eFluor-450-cells) and co-cultured for 72 h. The ability of HIV+ plasma to recognize uninfected bystander cells in the presence of 50 μM (+)-BNM-III-170 or (S)-MCG-IV-210 was evaluated by FACS (FIG. 17A). These uninfected eFluor 450+ cells were also used as target cells for ADCC with autologous PBMC and 5 HIV+ plasma in the presence of 50 μM (+)-BNM-III-170 or (S)-MCG-IV-210 (FIG. 17B).

In general, IC50 refers to the concentration that inhibits the measured activity by half.

Take `NCCNC(=O)N1CCC[C@H](C(=O)Nc2ccc(Cl)c(F)c2)C1` [(S)-MCG-IV-210]: the “17b-mediated capture of virions” value in experiment [1] (50 μM compound) is given as “dramatic increase”. In experiment [1] (50 μM compound in combination with 5 μg/ml 17b), the “virion capture by the A32 and C11 Cluster A antibodies” value is “permit virion capture”. Further, the IC50 with HIV-1CH58TF [2] is 6.97 µM. In addition, in experiment [3] (5 μg/ml 17b, 37° C.), the “recognition of infected cells by A32-AF647 with addition of 17b” value is given as “significantly enhanced”. The “binding of infected cells by A32-AF647 in the presence of HIV+ plasma” value in experiment [3] (1:1000 diluted HIV+ plasma) was “significantly enhanced binding”. Further, the “neutralization by 17b of viral particles sensitized with compound” value in the experiment on HIV-1CH58TF [4] is “potently neutralized”. In experiment [5] (added at the time of co-culture), the “recognition of bystander cells by HIV+ plasma” value is reported as “significantly decreased”. The “ADCC-mediated killing of uninfected bystander CD4+ T cells” value in experiment [5] (autologous PBMC and 5 HIV+ plasma) is on record as “protecting uninfected bystander CD4+ T cells from ADCC-mediating killing”.
